Reference: patent US20190375786A1, “STABLE PEPTIDES AND METHODS OF USE THEREOF” (Fred Hutchinson Cancer Research Center, priority 2016, published 2019)
Entries after “also recorded” stand apart in the source; their conditions may differ. Positions of bridges follow the written chain, without caps; N, C: chain ends. Residues, ends and D or L forms follow the SMILES beside them.

Assays:
[1] = Resistance to elevated temperature, HPLC; format: physicochemical; conditions: 100° C. for 1 hour; HPLC
How it was run: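 Peptides were incubated at room temperature, 70° C or 100° C for one hour in ddH2O; another protocol used 70° C, 75° C or 100° C for one hour in 0.5 mM PBS, then pelleting and analysis of the supernatant. Remaining peptide was measured by C-18 RP-HPLC, 5–45% acetonitrile/0.1% TFA over 10 min.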

[2] = Resistance to reduction by DTT, RP-HPLC; format: physicochemical; conditions: 10 mM DTT; HPLC vs non-reduced peptide
How it was run: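 Peptide (12.5 μg from a 2 mg/ml stock, or 0.015 mM final in PBS) was held 30 min at room temperature with or without 10 mM DTT. Reduced and non-reduced forms were compared by C-18 RP-HPLC using a 5–45% acetonitrile/0.1% TFA gradient over 10 min, with detection at 214 and 280 nm.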

[3] = Circular dichroism thermal stability, heating 20° C. to 95° C.; format: physicochemical; conditions: 10 mM phosphate buffer pH 7.4; heated 20° C. to 95° C.
Experimental: (§1) Protein secondary structures were assessed using Circular Dichrosim (CD). CD spectra were measured with a Jasco J-720W spectropolarimeter using a 1.0 mm path length cell. Protein samples in 10 mM phosphate buffer (pH=7.4) were at 25-30 μM protein concentration. Samples were analyzed at wavelength ranges of […]. Data were expressed in terms of relative ellipticity [θ]; (mdeg). To determine thermal stability of proteins, samples were subjected to incremental increase in temperature at a ramp of 2° C./min from 20° C. to 95° C. Stability and protein unfolding were monitored at 220 and 215 for α-helix and β-sheet secondary structures, respectively. Data are expressed in terms of relative ellipticity [θ], reported in mdeg. For SEQ ID NO: 43 and its point mutant variants, no changes to the α-helix-dominated structure were observed upon heating up to 95° C. […] Additionally, protein melting temperature (Tm) determination was performed by monitoring protein unfolding using SYPRO Orange dye (Molecular Probes). In brief, 0.1 mg/mL protein sample in 20 μL total volume PBS buffer were mixed with 24, of 10× SYPRO Orange dye. Dye intercalation into the hydrophobic protein core following protein unfolding was assayed using the C1000 Touch Thermal Cycler with CFX96 Deep Well Real-Time System (BioRad). Samples were heated from 20° C. to 95° C. with stepwise increments of 0.5° C. per minute and a 5 sec hold step for every point, followed by fluorescence reading. Tm were calculated by analyzing the derivatives of Relative florescence Units (RFU). FIG. 17D illustrates this SYPRO Orange melting assay of Peptides.

[4] = SYPRO Orange melting assay; format: physicochemical; conditions: heating from 20° C. to 95° C.
Experimental: as §1

[5] = target: T1, pepsin (Sus scrofa, UniProt P00791); experiment: Pepsin digestion resistance in simulated gastric fluid, RP-HPLC; format: in vitro ADME, porcine; parameters: purchased Sigma Aldrich P7012; conditions: HPLC; for resistance to pepsin digestion (in words): 500 U/ml pepsin (50 U per reaction) in SGF, 30 minutes at 37.5° C.; for resistance to pepsin, Example 7 conditions (in words): 500 U pepsin (5000 U/ml) in SGF, 30 min at room temperature, with or without DTT
How it was run: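 Peptide (12.5 μg) incubated 30 min at 37.5 °C with or without 500 U/ml pepsin in simulated gastric fluid (pH 1.05; 2% NaCl in 0.7% HCl); some reactions quenched with 100 mM Tris and 10 mM DTT. Intact peptide followed by C-18 RP-HPLC (5–45% acetonitrile/0.1% TFA over 10 min) at 214 and 280 nm.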

[6] = Stability in simulated gastric fluid (SGF, pH 1.05), RP-HPLC; format: physicochemical; conditions: HPLC vs non-reduced peptide
Experimental: (§2) Peptides were first suspended in 500 ul of ddH2O to a stock concentration of 2 mg/ml. Reactions were prepared by adding 12.5 ug of peptide from the stock solution to a 10 mM solution of DTT in PBS and allowed to incubate at room temperature for 30 minutes. Other reactions were prepared with 12.5 μg peptide with or without 500 U/ml pepsin in simulated gastric fluid (SGF; pH 1.05; […] sodium chloride in 0.7% (v/v) hydrochloric acid) and were incubated for 30 minutes at 37.5° C. Some reactions were quenched with a final concentration of 100 mM Tris base and 10 mM dithiothreitol (DTT). Some reactions were performed in all of the above components, including simulated gastric fluid, pepsin, Tris, and DTT (referred to as SPTD). Reversed phase HPLC (RP-HPLC) was run on samples using an Agilent 1260 HPLC equipped with a C-18 Poroshell 120B column. Sample were analyzed by a gradient method with a mobile phase of Solvent A (water with 0.1% TFA) and Solvent B (acetonitrile with 0.1% TFA). Solvent B was ramped up from 5%-45% of the mobile phase over a period of 10 minutes. Peptides were detected at an absorbance of 214 nm and 280 nm.
This example illustrates peptide stability in biological conditions including in the presence of reducing agents, proteases, oxidative conditions, acidic conditions, and simulated gastric fluids. […] Various peptides were suspended in 500 μl of ddH2O at a stock concentration of 2 mg/ml. This was then diluted in accord with the reaction conditions to prevent adverse buffering effects. Reactions were prepared with 12.5 μg peptide dissolved in solution and, in some samples, additionally suspended in a 10 mM solution of DTT, simulated gastric fluid (pH 1.05; […] sodium chloride in 0.7% (v/v) hydrochloric acid), 500 U pepsin (5000 U/ml pepsin), 50 U trypsin (500 U/ml trypsin) with 1 mg/ml inhibitor in PBS, or a combination of any of these conditions. All protease reactions were incubated for 30 min at room temperature and then quenched. Pepsin reactions were quenched by adding Tris base to a final concentration of 0.075 M. Trypsin reactions were quenched by adding excess soybean trypsin inhibitor. RP-HPLC was then run on samples using an Agilent 1260 HPLC equipped with a C-18 Poroshell 120B column. Sample were analyzed by a gradient method with a mobile phase of Solvent A (water with 0.1% TFA) and Solvent B (acetonitrile with 0.1% TFA). Solvent B was ramped up from 5%-45% of the mobile phase over a period of 10 minutes.

[7] = target: T1, pepsin; experiment: Stability in SPTD (simulated gastric fluid, pepsin, Tris and DTT), RP-HPLC; format: in vitro ADME; conditions: SGF pH 1.05 with 500 U/ml pepsin, 100 mM Tris, 10 mM DTT
Experimental: as §2

[8] = target: trypsin (Sus scrofa, UniProt P00761); experiment: Trypsin digestion resistance of soluble peptide, RP-HPLC; format: in vitro ADME, porcine; parameters: purchased Sigma Aldrich 6567; conditions: HPLC; for resistance to trypsin, Example 7 conditions (in words): 50 U trypsin (500 U/ml), 30 min at room temperature, with or without 10 mM DTT; for resistance to trypsin digestion (in words): 500 U/ml trypsin (50 U per reaction), 30 minutes at 37.5° C.
How it was run: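 12.5 μg soluble peptide digested with 500 U/ml porcine trypsin in PBS, 30 min at 37.5° C; quenched with soybean trypsin inhibitor, with or without 10 mM DTT reduction afterwards. Intact peptide assessed by C-18 RP-HPLC, 5-45% acetonitrile/0.1% TFA gradient over 10 min.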

[9] = Resistance to reduction by reduced glutathione (GSH), HPLC; format: physicochemical; conditions: 10 mM reduced glutathione (GSH); HPLC vs non-reduced peptide
Experimental: This example describes stability of designed or engineered peptides under reducing conditions. Peptides that are designed or engineered to interact with one or more target proteins in the cell, such as proteins in the nucleus, are exposed to reducing conditions in the cytosolic compartment of cells. Thus, it is advantageous for peptides of this disclosure to display stability in reducing conditions. Stability of peptides of this disclosure was tested in 10 mM DTT and 10 mM GSH. GSH is a more physiologically relevant reducing agent for testing peptide stability in intracellular conditions. An example of a peptide-target protein interaction is a peptide binding to a TEAD protein.

[10] = test system: TEAD protein; experiment: Binding of surface-displayed (SDGF) peptide to biotinylated target protein after reducing agent, flow cytometry; format: cell-based; conditions: HEK-293 cells displaying peptide, 20 nM biotinylated target protein
Experimental: Designed or engineered peptides of this disclosure were also tested to evaluate if the peptides' binding activity to their target protein (e.g., TEAD protein) was affected by exposure to reducing conditions. HEK-293T suspension cells were transfected with a surface display GFP FasL(SDGF) vector comprising SEQ ID NO: 39 (SDGF-SEQ ID NO: 39) or SDGF vector comprising SEQ ID NO: 43 (SDGF-SEQ ID NO: 43) construct. Cultures were grown for two days, followed by incubation in 10 mM GSH or 10 mM DTT. Finally, cells were stained with biotinylated-target protein to evaluate the binding activity of a peptide to the target protein. FIG. 15 illustrates the stability of peptides of SEQ ID NO: 39 and SEQ ID NO: 43 after exposure to a reducing agent. Each peptide was expressed on a cell surface and tested for binding to a target protein after cells expressing SDGF-SEQ ID NO: 43 or SEQ ID NO: 39 were exposed to a reducing agent. FIG. 15A illustrates a flow cytometry plot showing binding of HEK-293 suspension cells transfected with SDGF-SEQ ID NO: 39 (GFP) incubated for 5 minutes in PBS, 10 mM DTT, or 10 mM reduced glutathione (GSH) before staining with 20 nM biotinylated target protein and 20 nM AF647-streptavidin. FIG. 15B illustrates a flow cytometry plot showing binding of HEK-293 suspension cells transfected with SDGF-SEQ ID NO: 43 (GFP) incubated for 5 minutes in PBS, 10 mM DTT, or 10 mM reduced glutathione (GSH) before staining with 20 nM biotinylated target protein and 20 nM AF647-streptavidin. FIG. 15C illustrates quantification of the AF647 mean fluorescence intensity (MFI) of cells falling within the “slice” gate shown in FIG. 15A and FIG. 15B. […] In other words, peptides of SEQ ID NO: 39 and SEQ ID NO: 43 were resistant to reduction by GSH.

T1 sequence (P00791 60-385): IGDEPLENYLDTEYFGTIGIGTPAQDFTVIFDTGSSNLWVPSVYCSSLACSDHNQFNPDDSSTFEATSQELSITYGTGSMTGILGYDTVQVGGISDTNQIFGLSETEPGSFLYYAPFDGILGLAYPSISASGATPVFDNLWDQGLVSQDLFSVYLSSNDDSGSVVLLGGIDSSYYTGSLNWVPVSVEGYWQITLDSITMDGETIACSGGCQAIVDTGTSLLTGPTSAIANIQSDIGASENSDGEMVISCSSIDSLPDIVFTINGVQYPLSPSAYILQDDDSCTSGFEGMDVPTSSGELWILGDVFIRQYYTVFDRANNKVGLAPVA
Sequence of trypsin (P00761 9-231): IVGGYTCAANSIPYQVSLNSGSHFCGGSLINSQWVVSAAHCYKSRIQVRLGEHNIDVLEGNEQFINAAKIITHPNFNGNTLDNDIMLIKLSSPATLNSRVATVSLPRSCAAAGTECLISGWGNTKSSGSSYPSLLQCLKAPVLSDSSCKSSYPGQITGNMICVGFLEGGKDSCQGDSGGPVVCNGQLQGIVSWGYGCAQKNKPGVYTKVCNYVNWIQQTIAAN

Compound	resistance to reduction by DTT (in words) [2]	CD secondary structure signature before (Pre) and after (Post) incubation at 95° C. [3]	melting temperature (Tm) [4]	resistance to pepsin digestion (in words) [5]	stability in simulated gastric fluid / low pH (in words) [6]	resistance in SPTD (SGF, pepsin, Tris, DTT) (in words) [7]	resistance to trypsin, Example 7 conditions (in words) [8]	resistance to pepsin, Example 7 conditions (in words) [5]	resistance to trypsin digestion (in words) [8]	other results
GSPDEYIERAKECCKKQDIQCCLRIFDESKDPNVMLICLFCP [SEQ ID NO: 45]	partially resistant	identical; also recorded: similar	no melting temperature could be determined	resistant						resistance to incubation at 100° C. (in words) [1]: resistant
GSPDEYIERAKECCKKQDIQCCLRIFDESGDPNVMLICLFCW [SEQ ID NO: 44]	partially resistant	similar; also recorded: identical	no melting temperature could be determined							
GSGVPINVRCRGSRDCLDPCRRAGMRFGRCINSRCHCTP [SEQ ID NO: 31]	highly resistant; also recorded: remained intact; also recorded: intact and resistant			highly resistant	highly resistant; also recorded: remained intact; also recorded: intact and resistant	highly resistant	remained intact; also recorded: resistant	remained intact; also recorded: resistant		
GSPDEYIERAKECCKKGDIQCCLRYFEESGDPNVMLICLFCP [SEQ ID NO: 39]										resistance to GSH reducing conditions [9]: resistant; binding to target protein after DTT treatment ([10]; 5 minutes in 10 mM DTT): partial loss in binding; binding to target protein after GSH treatment ([10]; 5 minutes in 10 mM GSH): no loss in binding
CC[C@H](C)[C@@H]1NC(=O)[C@@H]2CSSC[C@H](NC(=O)[C@H](CCCCN)NC(=O)[C@@H](NC(=O)[C@H](CC(N)=O)NC(=O)[C@@H](NC(=O)[C@@H]3CCCN3C(=O)[C@@H](NC(=O)CNC(=O)[C@H](CO)NC(=O)CN)C(C)C)[C@@H](C)CC)C(C)C)C(=O)N[C@@H](CCCNC(=N)N)C(=O)NCC(=O)N[C@@H](CO)C(=O)N[C@@H](CCCNC(=N)N)C(=O)N[C@@H](CC(=O)O)C(=O)N[C@H]3CSSC[C@H](NC(=O)[C@H](CCCCN)NC(=O)[C@H](CO)NC(=O)[C@H](CC(N)=O)NC1=O)C(=O)N[C@@H](Cc1c[nH]cn1)C(=O)N[C@H](C(=O)N[C@H](C(=O)N1CCC[C@H]1C(=O)O)[C@@H](C)O)CSSC[C@H](NC(=O)[C@@H]1CCCN1C(=O)[C@H](CC(=O)O)NC(=O)[C@H](CC(C)C)NC3=O)C(=O)N[C@@H](CCCCN)C(=O)N[C@@H](CCCCN)C(=O)N[C@@H](C)C(=O)NCC(=O)N[C@@H](CCSC)C(=O)N[C@@H](CCCNC(=N)N)C(=O)N[C@@H](Cc1ccccc1)C(=O)NCC(=O)N[C@@H](CCCCN)C(=O)N2 [SEQ ID NO: 27] (H-GSGVPINVKCRGSRDCLDPCKKAGMRFGKCINSKCHCTP-OH; disulfide 10-30, 16-35, 20-37)				highly resistant	highly resistant; also recorded: remained intact	highly resistant	remained intact	remained intact	highly resistant; also recorded: fully resistant	
GSQFTNVSCTTSRECWSVCQRLHNTSRGRCMNRRCRCYS [SEQ ID NO: 2]	remained intact; also recorded: highly resistant				remained intact	resistant			highly resistant	
